According to ChEMBL document CHEMBL1201862, “PubChem BioAssay data set” (2004):
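Method: 48-hour compound exposure of cells in 96-well plates, five concentrations, linear interpolation of endpoints. Here, GI50 denotes the concentration required for 50% inhibition of growth.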 Calls of active or inactive are those of the source. Rule as the data show it: active = GI50 up to about 1.1 µM and inactive = higher.

What was measured:
Assay in all cases: NCI-60 cell line screen, 48 h
DU-145 = tested on: DU-145
MDA-MB-231 = tested on: MDA-MB-231
MOLT-4 = tested on: MOLT-4
U-251 = tested on: U-251
Malme-3M = tested on: Malme-3M
UO-31 = tested on: UO-31
OVCAR-5 = tested on: OVCAR-5
HT-29 = tested on: HT-29
HCT-15 = tested on: HCT-15
SK-OV-3 = tested on: SK-OV-3
UACC-257 = tested on: UACC-257
SN12C = tested on: SN12C
CCRF-CEM = tested on: CCRF-CEM
RPMI-8226 = tested on: RPMI-8226
MCF7 = tested on: MCF7
EKVX = tested on: EKVX
KM12 = tested on: KM12
MDA-N = tested on: MDA-N
A498 = tested on: A498
MDA-MB-435 = tested on: MDA-MB-435
HCC 2998 = tested on: HCC 2998
COLO 205 = tested on: COLO 205
HCT-116 = tested on: HCT-116
CAKI-1 = tested on: CAKI-1
SW-620 = tested on: SW-620
PC-3 = tested on: PC-3
K562 = tested on: K562
SF-268 = tested on: SF-268
NCI-H460 = tested on: NCI-H460
ACHN = tested on: ACHN
SNB-75 = tested on: SNB-75
NCI-H226 = tested on: NCI-H226
BT-549 = tested on: BT-549
SF-295 = tested on: SF-295
T47D = tested on: T47D
IGROV-1 = tested on: IGROV-1
M14 = tested on: M14
A549 = tested on: A549
HOP-62 = tested on: HOP-62
UACC-62 = tested on: UACC-62
OVCAR-3 = tested on: OVCAR-3
OVCAR-8 = tested on: OVCAR-8
NCI-H522 = tested on: NCI-H522
HOP-92 = tested on: HOP-92
786-0 = tested on: 786-0
SK-MEL-28 = tested on: SK-MEL-28
HL-60 = tested on: HL-60
SNB-19 = tested on: SNB-19
SK-MEL-5 = tested on: SK-MEL-5
OVCAR-4 = tested on: OVCAR-4
Hs-578T = tested on: Hs-578T
RXF 393 = tested on: RXF 393
TK-10 = tested on: TK-10
LOX IMVI = tested on: LOX IMVI
NCI/ADR-RES = tested on: NCI/ADR-RES
NCI-H23 = tested on: NCI-H23
SF-539 = tested on: SF-539
SR = tested on: SR

Clc1nc(Cl)nc(NC23CC4CC(CC(C4)C2)C3)n1
GI50 (DU-145): 16.7 µM (inactive)
GI50 (MDA-MB-231): 17.9 µM (inactive)
GI50 (MOLT-4): 17.9 µM (inactive)
GI50 (U-251): 15.5 µM (inactive)
GI50 (Malme-3M): 16.2 µM (inactive)
GI50 (UO-31): 9.33 µM (inactive)
GI50 (OVCAR-5): 19.5 µM (inactive)
GI50 (HT-29): 17.9 µM (inactive)
GI50 (HCT-15): 15.6 µM
GI50 (SK-OV-3): 32.3 µM (inactive)
GI50 (UACC-257): 17.3 µM (inactive)
GI50 (SN12C): 18.1 µM (inactive)
GI50 (CCRF-CEM): 7.55 µM (inactive)
GI50 (RPMI-8226): 12 µM (inactive)
GI50 (MCF7): 32.1 µM (inactive)
GI50 (EKVX): 19.5 µM (inactive)
GI50 (KM12): 14.9 µM (inactive)
GI50 (MDA-N): 17.4 µM (inactive)
GI50 (A498): > 43.4 µM (inactive)
GI50 (MDA-MB-435): 16.2 µM (inactive)
GI50 (HCC 2998): 20.3 µM (inactive)
GI50 (COLO 205): 17.5 µM (inactive)
GI50 (HCT-116): 17.1 µM (inactive)
GI50 (CAKI-1): 8.09 µM (inactive)
GI50 (SW-620): 16.7 µM (inactive)
GI50 (PC-3): > 34.8 µM (inactive)
GI50 (K562): 13.7 µM (inactive)
GI50 (SF-268): 19.2 µM (inactive)
GI50 (NCI-H460): 26.3 µM (inactive)
GI50 (ACHN): 35.3 µM (inactive)
GI50 (SNB-75): 17.5 µM (inactive)
GI50 (NCI-H226): 21 µM (inactive)
GI50 (BT-549): 19.3 µM (inactive)
GI50 (SF-295): 19.7 µM (inactive)
GI50 (T47D): 17.2 µM (inactive)
GI50 (IGROV-1): 13.7 µM (inactive)
GI50 (M14): 18 µM (inactive)
GI50 (A549): 20 µM (inactive)
GI50 (HOP-62): 17.7 µM (inactive)
GI50 (UACC-62): 17.9 µM (inactive)
GI50 (OVCAR-3): 18.8 µM (inactive)
GI50 (OVCAR-8): 18.1 µM (inactive)
GI50 (NCI-H522): 16.7 µM (inactive)
GI50 (HOP-92): 17.2 µM (inactive)
GI50 (786-0): 17.3 µM (inactive)
GI50 (SK-MEL-28): 19.6 µM (inactive)
GI50 (HL-60): 3.44 µM (inactive)
GI50 (SNB-19): 21.4 µM (inactive)
GI50 (SK-MEL-5): 13.7 µM (inactive)
GI50 (OVCAR-4): 17.7 µM (inactive)
GI50 (Hs-578T): 11.8 µM (inactive)
GI50 (RXF 393): 16.7 µM (inactive)
GI50 (TK-10): 17.7 µM (inactive)
GI50 (LOX IMVI): 13.4 µM (inactive)
GI50 (NCI/ADR-RES): 21 µM (inactive)
GI50 (NCI-H23): 18.5 µM (inactive)
GI50 (SF-539): 17.5 µM (inactive)
GI50 (SR): 20.1 µM (inactive)
